In ChEMBL document CHEMBL1201862, “PubChem BioAssay data set” (2004):
The source made the active and inactive calls.

Key:
[1] = target: E3 ubiquitin-protein ligase Mdm2 (Homo sapiens, UniProt Q00987); assay: enhancers of MDM2-luciferase reporter signal, concentration-effect titration, project on inhibitors of MDM2 ubiquitin ligase, cellular assay, luminescent readout, 384-well plate format (AID 1394); assay type: functional;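 further: MDM2 E3 inhibitors raise luminescence so EC50 is for signal enhancement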
[2] = target: T1, Heat shock factor protein 1 (Mus musculus, UniProt P38532); assay: HSF1 potentiators in luciferase reporter cells, confirmation, cell-based, NIH3T3, luminescence, dose retest (AID 435004); assay type: functional;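 further: stress induced by proteasome inhibitor MG132 added 30 min after compound; luciferase reporter driven by HSF1 response element in NIH3T3 cells; actives raise luminescence as potentiators of the MG132 stress response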
T1 sequence (P38532 whole entry): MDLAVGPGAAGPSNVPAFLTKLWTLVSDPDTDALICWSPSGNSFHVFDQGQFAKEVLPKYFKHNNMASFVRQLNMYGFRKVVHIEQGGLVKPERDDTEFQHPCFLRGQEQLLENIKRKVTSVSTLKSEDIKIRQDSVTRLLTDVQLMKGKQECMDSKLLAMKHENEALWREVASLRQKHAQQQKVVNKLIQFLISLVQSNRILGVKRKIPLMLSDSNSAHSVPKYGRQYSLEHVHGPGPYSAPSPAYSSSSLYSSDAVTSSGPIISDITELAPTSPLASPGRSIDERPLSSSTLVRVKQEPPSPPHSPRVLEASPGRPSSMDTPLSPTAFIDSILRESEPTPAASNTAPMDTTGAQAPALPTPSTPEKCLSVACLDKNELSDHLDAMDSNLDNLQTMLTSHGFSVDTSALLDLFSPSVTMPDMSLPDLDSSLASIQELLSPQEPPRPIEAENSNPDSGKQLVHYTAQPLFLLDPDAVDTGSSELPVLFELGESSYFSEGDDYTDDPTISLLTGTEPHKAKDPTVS

[3] = cytotoxicity in HEK-293T cells, dose response, cytotoxicity control for TCR NF-kB inhibitor project, luminescence, T-cell screen hits (AID 489026); assay type: functional, cell-based;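 further: cells exposed to compound about 14 hours before the viability readout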
A-375 [4] = assay: MITF: Counter assay: A375 proliferation Measured in Cell-Based System Using Plate Reader - 2084-03_Inhibitor_Dose_DryPowder_Activity. [Related pubchem assays (depositor defined):AID488944]; assay type: functional; settings: Homo sapiens
[5] = target: T2, Microphthalmia-associated transcription factor (Homo sapiens, UniProt O75030); assay: TRPM1 promoter luciferase signal decrease, dose response, MITF inhibitor project, cell-based, SK-MEL-5, cherry-picked, set 3 (AID 493073); assay type: functional
T2 sequence (O75030 whole entry): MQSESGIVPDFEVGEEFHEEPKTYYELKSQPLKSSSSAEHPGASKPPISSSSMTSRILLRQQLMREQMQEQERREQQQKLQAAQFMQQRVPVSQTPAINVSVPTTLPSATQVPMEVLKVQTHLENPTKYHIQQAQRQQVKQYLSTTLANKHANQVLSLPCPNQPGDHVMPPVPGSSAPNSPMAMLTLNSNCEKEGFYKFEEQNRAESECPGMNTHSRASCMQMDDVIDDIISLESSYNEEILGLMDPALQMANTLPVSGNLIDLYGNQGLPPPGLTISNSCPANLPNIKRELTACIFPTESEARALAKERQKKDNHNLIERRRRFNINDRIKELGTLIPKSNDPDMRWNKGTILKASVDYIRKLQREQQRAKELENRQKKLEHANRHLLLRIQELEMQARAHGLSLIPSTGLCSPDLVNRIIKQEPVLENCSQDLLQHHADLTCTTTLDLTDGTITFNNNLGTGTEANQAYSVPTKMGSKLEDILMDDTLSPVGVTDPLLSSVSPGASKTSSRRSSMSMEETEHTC

[6] = control 3'UTR Renilla luciferase suppression, dose response, counter-screen for Shn3 inhibitor project, cell-based, Clone20-Shn3RL, cherry-picked (AID 624133); assay type: functional
[7] = HepG2 cell cytotoxicity, dose response, cytotoxicity control for Shn3 inhibitor project, CellTiter-Glo, cherry-picked (AID 624134); assay type: functional, cell-based
[8] = Shn3 3'UTR reporter inhibitors, dose response, cell-based, Clone20 osteoblasts, firefly luciferase, cherry-picked (AID 624132); assay type: functional;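 further: firefly luciferase luminescence from reporter carrying the Shn3 3'UTR in osteoblasts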
HeLa = assay: HeLa cell cytotoxicity, dose response, cytotoxicity control for MITF activator project, CellTiter-Glo luminescence, cherry-pick samples (AID 540259); assay type: functional, cell-based; settings: Homo sapiens
Streptokinase A = target: T3, Streptokinase A (Streptococcus pyogenes serotype M1, UniProt P10520); assay: S. pyogenes streptokinase expression inhibitors, potency, dose response, plasminogen activation absorbance, OD405 (AID 1914); assay type: functional, Streptococcus pyogenes M1 GAS;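 further: secreted streptokinase activity via plasminogen activation per viability signal from cell pellet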
T3 sequence (P10520 whole entry): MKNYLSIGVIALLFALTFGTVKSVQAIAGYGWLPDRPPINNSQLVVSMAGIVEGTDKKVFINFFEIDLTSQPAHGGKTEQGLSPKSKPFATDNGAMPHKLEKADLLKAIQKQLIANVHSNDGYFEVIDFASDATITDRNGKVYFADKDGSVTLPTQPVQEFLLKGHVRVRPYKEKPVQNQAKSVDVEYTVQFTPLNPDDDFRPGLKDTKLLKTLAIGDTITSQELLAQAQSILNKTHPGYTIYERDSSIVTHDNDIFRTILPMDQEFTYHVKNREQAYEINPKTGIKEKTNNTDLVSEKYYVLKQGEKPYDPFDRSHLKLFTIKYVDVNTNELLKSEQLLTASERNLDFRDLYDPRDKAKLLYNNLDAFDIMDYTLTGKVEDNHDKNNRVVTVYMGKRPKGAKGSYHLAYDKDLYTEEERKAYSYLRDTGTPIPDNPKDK

[9] = system: Streptococcus sp. 'group A'; assay: growth inhibition of control SK(-) GAS strain, dose response, counter-screen for streptokinase expression inhibitor project, luminescence, kanamycin, BacTiterGlo, confirmation (AID 1900); assay type: functional, organism-based
Streptococcus = assay: Group A Streptococcus viability loss, dose response, counter-screen for streptokinase expression inhibitor project, luminescence, BacTiterGlo (AID 1915); assay type: functional, organism-based;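 further: potency for reduction of bacterial viability or growth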
Vero [10] = assay: cells; assay type: functional, cell-based; settings: Chlorocebus sabaeus
Vero [11] = assay: cells; assay type: functional; settings: Chlorocebus sabaeus
[12] = target: T4, Long-chain-fatty-acid--AMP ligase FadD28 (Mycobacterium tuberculosis, UniProt P9WQ59); assay: Fluorescence polarization aasay to screen for inhibitors that compete for the binding of FadD28 to a bisubstrate Measured in Biochemical System Using Plate Reader - 2147-01_Inhibitor_Dose_CherryPick_Activity.; assay type: functional, Mycobacterium tuberculosis H37Rv
T4 sequence (P9WQ59 whole entry): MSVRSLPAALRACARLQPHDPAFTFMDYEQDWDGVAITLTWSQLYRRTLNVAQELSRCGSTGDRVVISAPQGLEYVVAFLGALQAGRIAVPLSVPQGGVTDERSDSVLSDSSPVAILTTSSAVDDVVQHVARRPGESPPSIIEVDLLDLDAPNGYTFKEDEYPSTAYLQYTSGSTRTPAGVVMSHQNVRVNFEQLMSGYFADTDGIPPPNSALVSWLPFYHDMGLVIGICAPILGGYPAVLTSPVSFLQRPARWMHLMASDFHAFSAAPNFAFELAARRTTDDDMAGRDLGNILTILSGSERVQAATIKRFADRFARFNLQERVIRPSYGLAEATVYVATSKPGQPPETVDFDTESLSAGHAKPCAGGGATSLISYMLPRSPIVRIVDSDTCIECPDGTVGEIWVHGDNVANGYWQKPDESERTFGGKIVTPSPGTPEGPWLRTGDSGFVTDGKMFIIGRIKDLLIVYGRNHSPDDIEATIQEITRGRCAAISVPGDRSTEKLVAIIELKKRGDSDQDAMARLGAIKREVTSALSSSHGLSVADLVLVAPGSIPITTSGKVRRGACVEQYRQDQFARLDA

A-375 [13] = assay: A375 melanoma cell viability reduction, dose response, counter-screen for MITF modulator project, cherry-pick samples, set 2 (AID 540335); assay type: functional, cell-based; settings: Homo sapiens

E3 ubiquitin-protein ligase Mdm2, sequence (Q00987 whole entry): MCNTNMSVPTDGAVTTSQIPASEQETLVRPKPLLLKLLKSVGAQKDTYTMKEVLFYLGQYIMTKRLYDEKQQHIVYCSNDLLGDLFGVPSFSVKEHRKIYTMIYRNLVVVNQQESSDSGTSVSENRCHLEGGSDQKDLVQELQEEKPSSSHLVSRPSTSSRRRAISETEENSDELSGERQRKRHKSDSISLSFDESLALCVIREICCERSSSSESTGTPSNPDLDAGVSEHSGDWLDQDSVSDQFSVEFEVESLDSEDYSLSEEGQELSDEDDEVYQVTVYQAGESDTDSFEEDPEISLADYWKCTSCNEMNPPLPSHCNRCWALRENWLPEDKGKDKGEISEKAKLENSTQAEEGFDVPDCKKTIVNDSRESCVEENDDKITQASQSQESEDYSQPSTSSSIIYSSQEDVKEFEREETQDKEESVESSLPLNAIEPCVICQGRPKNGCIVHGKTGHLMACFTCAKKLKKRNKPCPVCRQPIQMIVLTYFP

For `O=C(/C=C/c1cccc([N+](=O)[O-])c1)n1cnc2ccccc21`, which EC50 [1] is on record?
The EC50 was 1.68 µM (active).

And the EC50 [2]?
The EC50 was 1.62 µM (inconclusive).

What about the IC50 [3] of the same molecule?
Its IC50 is > 80 µM (inactive).

What about the AC50 (A-375 [4]) of the same molecule?
The AC50 was 28.2 µM (active).

And the AC50 [5]?
The AC50 was 4.39 µM (active).

What about the AC50 [6] of the same molecule?
Its AC50 is 14.7 µM (active).

What about the AC50 [7] of the same molecule?
The AC50 was > 70 µM (inactive).

And the AC50 [8]?
Its AC50 is 594 nM (active).

Which AC50 (HeLa) does the source give for `O=C(NCCc1ccccc1)c1nccc2ccccc12` here?
Its AC50 is 68.6 µM (active).

With `Cc1nc(N)sc1N=Nc1ccc(F)cc1` as the molecule, how does the EC50 (Streptokinase A) read?
The EC50 was > 150 µM (not active).

What about the EC50 [9] of the same molecule?
The EC50 was 5.74 µM (active).

What about the AC50 (HeLa) of the same molecule?
Its AC50 is 79.5 µM (active).

And the EC50 (Streptococcus)?
Its EC50 is > 150 µM (not active).

With `COc1ccc(C)c2sc(N(CCCN(C)C)C(=O)c3ccc4c(c3)OCCO4)nc12` as the molecule, how does the IC50 (Vero [10]) read?
The IC50 was 24.2 µM (active).

Which CC50 (Vero [11]) does the source give for `ClCCn1cnc2c(SCc3ccccc3)ncnc21` here?
Its CC50 is > 25 µM (active).

What about the IC50 (Vero [10]) of the same molecule?
The IC50 was 2.03 µM (active).

What does the source list for `O=C(O)c1cc(N/N=C/C(Cl)=C/c2ccccc2)ccc1Cl`?
AC50 [12]: 13.6 µM (active); AC50 (A-375 [13]): > 11 µM (active); AC50 (A-375 [4]): > 11 µM (active); AC50 [5]: 10.4 µM (active)
